This is an account of results in ChEMBL document CHEMBL4725397, “SAR study of bisamides as cyclophilin a inhibitors for the development of host-targeting therapy for hepatitis C virus infection” (Bioorg Med Chem, 2020).

SMILES strings stand for the structures. Bounds are passed on as bounds.

In general, CC50 refers to the concentration giving 50% cytotoxicity. A word on the EC50: it is the concentration needed to bring the measured effect to its halfway point. Read a high EC50 as weaker potency. The term Kd denotes the constant that tells how readily two partners part at equilibrium.

Data set [1] in a line: Cytotoxicity against human Huh7.5 cells assessed as decrease in cell viability after 3 days by MTT assay. Type of data set: cell-based. Conditions: time 3 day. On the technique in general: Tetrazolium assays rely on reduction of a dye to a coloured formazan, in cell work by metabolically active cells.
Data set [2] can be described thus: Antiviral activity against HCV genotype 2a JFH-1 infected in human Huh7.5 cells after 3 days by renilla luciferase reporter gene assay. Format: functional, cell-based, Hepatitis C virus subtype 2a. Particulars: Hepatitis C virus, JFH-1, Huh7.5, 72 h. On the technique in general: Reporter assays use an easily measured gene product as a stand-in for the process of interest.

The nature of data set [3]: Selectivity index, ratio of CC50 for human Huh7.5 cells to EC50 for genotype 2a HCV JFH-1 infected in human Huh7.5 cells. Type of data set: toxicity, cell-based.
Data set [4] has as its system Hepatitis C virus. Briefly: Antiviral activity against 0.05 MOI HCV JFH-1 infected in human Huh7.5 assessed as suppression of viral replication after 4 days post-infection by western blot analysis. Type of data set: functional, organism-based. Conditions: Hepacivirus hominis, time 4.0 day. (In general: Immunoblotting shows a protein as a band on a membrane.)
The target of data set [5] is Peptidyl-prolyl cis-trans isomerase A (Homo sapiens, UniProt P62937). Briefly: Binding affinity to Cyclophilin A (unknown origin) by surface plasmon resonance analysis.
Peptidyl-prolyl cis-trans isomerase A, sequence (P62937 whole entry): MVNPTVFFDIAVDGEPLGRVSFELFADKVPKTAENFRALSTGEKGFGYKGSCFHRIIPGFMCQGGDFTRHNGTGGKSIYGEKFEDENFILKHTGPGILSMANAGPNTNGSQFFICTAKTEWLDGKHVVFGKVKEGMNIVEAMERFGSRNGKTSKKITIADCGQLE

Regarding `CC(C)(C)NC(=O)C(c1ccc([N+](=O)[O-])cc1)N(C(=O)Cc1c[nH]c2ccccc12)c1ccc(Br)cc1` (centres undefined), the CC50 at 72 h in data set [1] is 7 µM. Further, the EC50 in data set [2] was over 7 µM.

Take `COc1ccc(CCC(=O)N(c2ccc(Br)cc2)C(C(=O)NC2CCCCC2)c2ccc([N+](=O)[O-])cc2)cc1` (centres undefined): in data set [1], the CC50 at 72 h was determined as 9.8 µM. The compound also showed an EC50 in data set [2] of 6.1 µM.

Regarding `COc1cccc(CCN(C(=O)c2cc3ccccc3[nH]2)C(C(=O)NC2CCCCC2)c2ccc([N+](=O)[O-])cc2)c1` (centres undefined), the selectivity ratio in data set [3] was determined as 1.9. Further, the CC50 at 72 h in data set [1] was determined as 43.1 µM. For the same compound, the EC50 in data set [2] amounted to 22.2 µM.

Regarding `COc1cccc(CCN(C(=O)Cc2c[nH]c3ccccc23)C(C(=O)NC2CCCCC2)c2ccc([N+](=O)[O-])cc2)c1` (centres undefined), the CC50 at 72 h in data set [1] worked out at 27.6 µM. Besides, the EC50 in data set [2] is over 27.6 µM.

With `O=C(NC1CCCCC1)C(c1ccc([N+](=O)[O-])cc1)N(C(=O)Cc1c[nH]c2ccccc12)c1ccc(Br)cc1` (centres undefined), in data set [3], the selectivity ratio came out at 2.2. Besides, in data set [1], the CC50 at 72 h is 13.8 µM. This compound displayed an EC50 in data set [2] of 6.3 µM.

For the compound `COc1ccc(N(C(=O)c2cc3ccccc3[nH]2)C(C(=O)NC2CCCCC2)c2ccc([N+](=O)[O-])cc2)cc1OC` (centres undefined), the selectivity ratio in data set [3] was over 24.5. In data set [1], the CC50 at 72 h is over 100 µM. Further, the response in data set [2] was half-maximal at 4.1 µM (EC50). Besides, in data set [4], the Activity result is “Dose-dependent effect”.

For the compound `COc1ccc(CCN(C(=O)Cc2c[nH]c3ccccc23)C(C(=O)NC2CCCCC2)c2ccc([N+](=O)[O-])cc2)cc1OC` (centres undefined), the selectivity ratio in data set [3] was over 23.8. Further, the CC50 at 72 h in data set [1] is over 100 µM. The compound also yielded an EC50 in data set [2] of 4.2 µM. Moreover, the Activity result in data set [4] is “Dose-dependent effect”.

Regarding `COc1ccc(N(C(=O)Cc2c[nH]c3ccccc23)C(C(=O)NC2CCCCC2)c2ccc([N+](=O)[O-])cc2)cc1OC` (centres undefined), in data set [3], the selectivity ratio amounted to 18. In addition, in data set [1], the CC50 at 72 h turned out to be 57.6 µM. In data set [2], this compound gave an EC50 of 3.2 µM.

Turning to `CCCCCNC(=O)C(c1ccc([N+](=O)[O-])cc1)N(C(=O)Cc1c[nH]c2ccccc12)c1ccc(Br)cc1` (centres undefined), in data set [1], the CC50 at 72 h came out at 7 µM. The EC50 in data set [2] was over 7 µM.

`COc1ccc(N(C(=O)Cc2c[nH]c3ccccc23)C(C(=O)NC2CCCCC2)c2ccc([N+](=O)[O-])cc2)cc1` (centres undefined): the selectivity ratio in data set [3] was 3.4. The CC50 at 72 h in data set [1] worked out at 8.5 µM. Besides, in data set [2], a half-maximal response (EC50) required 2.5 µM.

In data set [5], `CC(C)c1ccc(N(C(=O)Cc2c[nH]c3ccccc23)C(C(=O)NC2CCCCC2)c2ccc([N+](=O)[O-])cc2)cc1` (centres undefined) came in with a dissociation constant Kd of 4.6 µM. In other words, the single-digit micromolar range.

`NC(=O)c1ncn([C@@H]2O[C@H](CO)[C@@H](O)[C@H]2O)n1` [RIBAVIRIN]: the selectivity ratio in data set [3] is over 6.1. Besides, the CC50 at 72 h in data set [1] is over 100 µM. The compound further returned an EC50 in data set [2] of 16.3 µM.

Turning to `COc1ccc(CN(C(=O)Cc2c[nH]c3ccccc23)C(C(=O)NC2CCCCC2)c2ccc([N+](=O)[O-])cc2)cc1` (centres undefined), the CC50 at 72 h in data set [1] was 56.3 µM. Moreover, the EC50 in data set [2] was over 56.3 µM.

As to `COc1cc(C(C(=O)NC2CCCCC2)N(C(=O)Cc2c[nH]c3ccccc23)c2ccc(C(C)C)cc2)cc(OC)c1OC` (centres undefined), in data set [1], the CC50 at 72 h is over 100 µM. Further, it took 5.2 µM to reach a half-maximal effect in data set [2] (EC50).

`O=C(NC1CCCCC1)C(c1ccc([N+](=O)[O-])cc1)N(C(=O)Cc1c[nH]c2ccccc12)c1ccccc1` (centres undefined): the selectivity ratio in data set [3] came to 2. Besides, the CC50 at 72 h in data set [1] was determined as 11.9 µM. In data set [2], this compound returned a concentration for a half-maximal effect (EC50) of 6 µM.

As to `COc1ccc(CCN(C(=O)c2cc3ccccc3[nH]2)C(C(=O)NC2CCCCC2)c2ccc([N+](=O)[O-])cc2)cc1OC` (centres undefined), the selectivity ratio in data set [3] is over 3.1. In addition, the CC50 at 72 h in data set [1] was over 100 µM. The compound further returned an EC50 in data set [2] of 31.9 µM.

With `COc1ccc(CCN(C(=O)Cc2c[nH]c3ccccc23)C(C(=O)NC2CCCCC2)c2cc(OC)c(OC)c(OC)c2)cc1OC` (centres undefined), the 50% cytotoxic concentration (CC50) at 72 h in data set [1] was over 100 µM. This compound also came in with an EC50 in data set [2] of 5.3 µM.
